This note sets out measurements from patent US11724980B2, “Quinones having high capacity retention for use as electrolytes in aqueous redox flow batteries” (President and Fellows of Harvard College, priority 2018, dated 2023).

Read-outs that look alike come from different tables or passages of the source.

Usually half-life stands for the time needed for the level to fall by half in the phase considered. Low values mean fast loss, high ones slow loss. One may read the solubility as how much of the substance goes into solution per volume.

Common to all, as to format: physicochemical
Data set [1] can be described thus: Rotating disk electrode study with Levich analysis. The following applies: 5 mM in 1 M KOH, Levich plot. The method, then: Glassy carbon was used as the working electrode for all three-electrode CV tests. RDE experiments were conducted using a Pine Instruments Modulated Speed Rotator AFMSRCE equipped with a 5 mm diameter glassy carbon working electrode, a Ag/AgCl reference electrode (BASi, pre-soaked in 3 M NaCl solution), and a graphite counter electrode. The electrode was rotated at a specific speed while the voltage was linearly swept from −0.4 to −0.11 V vs. Ag/AgCl (FIG. 4A). […]. RDE experiments were conducted using a Pine Instruments Modulated Speed Rotator AFMSRCE equipped with a 5 mm diameter glassy carbon working electrode, a Ag/AgCl reference electrode (BASi, pre-soaked in a 3 M KCl solution), and a graphite counter electrode. […]

The nature of data set [2]: physchem. The following applies: for decomposition: 0.1 M. As for the experimental part: FIGS. 24A-24D. Comparison of the stability of DPPEAQ with respect to alkyl chain cleavage to that of 2,6-DBEAQ at pH 14. ^1H NMR spectra (500 MHz, 10 mM NaCH3SO3 internal standard, δ 2.6 ppm) of (A) DPPEAQ at pH 14; (B) DPPEAQ at pH 14, treated for 5.5 days at 95° C. and 0.1 M concentration; (C) 2,6-DBEAQ at pH 14; (D) 2,6-DBEAQ at pH 14, treated for 5.5 days at 95° C. and 0.1 M concentration. […] The relative integrals and splitting of the peaks in the spectra of DPPEAQ after treatment are consistent with the products of (3-hydroxypropyl)phosphonate cleavage. Samples of DPPEAQ at 0.1 M concentration and pH 14 in both the oxidized and reduced form were stored in FEP bottles and heated in an oven at 65° C. for 2 weeks. The extent of decomposition was determined by ^1H NMR, with peak integrals measured relative to an internal standard of NaCH3SO3 prepared at 10 mM concentration in D2O.
By performing elevated temperature chemical stability studies, we have identified that the cleavage of γ-hydroxybutyrate is involved in the decomposition of the oxidized form of 2,6-DBEAQ (FIGS. 10A-10C and FIGS. 11A-11D), and we have characterized the time course of γ-hydroxybutyrate cleavage at pH 12 and pH 14 and at 0.1 M and 0.5 M concentration (FIG. 12 and FIGS. 13A-13C). […]; these observations are consistent with long redox flow battery lifetime at typical operating cell conditions.
We designed an analogue of 2,6-DBEAQ but with phosphonate-terminated functional groups, DPPEAQ, appearing to deliver both of these desired outcomes.
The differing relative stabilities of DPPEAQ and 2,6-DBEAQ at pH 12 (at 95° C. and 0.1 M concentration), in contrast to the similar extent of their observed decomposition at pH 14, may be due to a competition between multiple decomposition mechanisms that vary in a pH-dependent manner. The concentration of hydroxide ions at pH 14 is tenfold higher than the concentration of either molecule at 0.1 M, as opposed to tenfold lower at pH 12. In particular, we propose a hydroxide-mediated nucleophilic substitution reaction (SNAr or SN2) that dominates the decomposition of both molecules at pH 14. However, at a lower pH of 12, an intramolecular reaction with carboxylate acting as the nucleophile dominates in the decomposition of 2,6-DBEAQ, while no analogous intramolecular reaction of DPPEAQ at pH 12 can take place due to much weaker nucleophilicity of bulked phosphonate compared with carboxylate. The difference in the dominant mechanisms of 2,6-DBEAQ decomposition at pH 12 and 14 that we are proposing is also consistent with the observation that the initial rate of degradation is not 100-fold slower at pH 12 relative to pH 14. […] In addition, the operability at lower pH serves to decrease the corrosion of battery systems and enable the use of less expensive materials.

Data set [3] can be described thus: physchem. The following applies: for solubility: thermodynamic from solid. As for the experimental part: Solubility limits of all DBEAQ isomers were measured in their oxidized forms by adding the potassium salt of DBEAQ (prepared by reacting DBEAQ with potassium hydroxide in water) until no further solid could be dissolved. After filtering the mixture through a PTFE 0.45 μm syringe filter, a saturated solution of DBEAQ in KOH was obtained. The saturated solution was then diluted by a known amount, and the concentration was evaluated by UV-Vis (Ocean Optics Flame-S Spectrometer Assembly) at 280 and 364 nm. […]
The solubility limit of DPPEAQ was measured in the oxidized form by adding the potassium salt of DPPEAQ (prepared by reacting DPPEAQ with potassium hydroxide in water) until no further solid could be dissolved. The mixture was adjusted to pH 9. After filtering the mixture through a PTFE 0.45 μm syringe filter, a saturated solution of DPPEAQ at pH 9 was obtained. The saturated solution was then diluted by a known amount while maintaining a pH of 9, and the concentration was evaluated by UV-Vis (Agilent Cary 60 spectrophotometer). The concentration was calculated according to a pre-calibrated absorbance-concentration curve of known concentrations of DPPEAQ at pH 9.

On to `O=C([O-])CCCOc1ccc2c(c1)C(=O)c1ccc(OCCCC(=O)[O-])cc1C2=O.[K+].[K+]` [2,6-DBEAQ, 4,4′-((9,10-anthraquinone-2,6-diyl)dioxy)dibutyric acid], for which the “diffusion coefficient for the oxidized form” value in data set [1] is 1.58×10^−6 cm^2/s. The half-life in the data set “physchem [2]” (buffer, room temperature, pH 14, 0.1 M, oxidized form, from elevated temperature studies) is ~1830 days. The decomposition in “physchem [2]” (pH 12, 6 days at 95° C.) is listed as 15%; in “physchem [2]” (pH 14, 5.5 days at 95° C.), 45%. Besides, the “stability of the reduced form” value in the data set “physchem [2]” (temperatures up to 95° C.) is on record as “quite stable”. The “Maximum Solubility” value in the data set “physchem [3]” (KOH, pH 12) was determined as 600 mM. Further, the solubility is < 0.035 M in “physchem [3]” (pH 9, aqueous buffer, pH 9, read-out: solubility); > 0.5 M in “physchem [3]” (pH 12, aqueous buffer, KOH, pH 12, read-out: Maximum Solubility); 0.6 M in “physchem [3]” (pH 12, aqueous buffer, pH 12 (value in brackets), read-out: Solubility (M) at pH 14 (pH 12)); > 1 M in the data set “physchem [3]” (pH 14, aqueous buffer, KOH, pH 14, read-out: Maximum Solubility); 1.1 M in “physchem [3]” (pH 14, aqueous buffer, pH 14 (value outside brackets), read-out: Solubility (M) at pH 14 (pH 12)).
